The subject of the test is PC-3. The test is described as follows: cells. The arrangement: MTS cell viability / proliferation assay of PC-3 prostate cancer cells. The conditions noted are these: Homo sapiens, PC-3, 72 h; read-out: IC50 inhibiting PC-3. The procedure: Fifteen human cancer cell lines were tested in our studies. Initial screens used human lung cancer cell A549, human epithelial cervical cancer Hela cells, human prostate cancer PC-3 cells, human epidermoid cancer KB-31 cells, human breast cancer MDA-MB-231 cells, and human pancreatic cancer HPAF. These cell lines were obtained commercially from ATCC. The first six cell cultures were maintained in 75 cm^2 cell culture flasks in which the cells were passaged at 70–80% confluence every 2–3 days. All cancer cells were cultured in RPMI 1640 containing 10% fetal calf serum, 100 U/mL penicillin, 100 µg/mL streptomycin, and 2 mM L-lutamine (complete RPMI medium). All cancer cells were plated at 1×10^4 cells per well in a 96 well plate. Drugs of different concentrations were then added. MTS assays (CellTiter 96® AQueous One Solution Cell Proliferation Assay, Promega) were performed after 72 h post treatment to determine the cell viability following drug administration.

Each structure is given as a SMILES string.

Consider `COc1ccc2nc(SCC(=O)Nc3ccccc3OC)c(C#N)cc2c1` [5a], for which the IC50 (in general, the point on the concentration scale where inhibition reaches its midpoint) amounted to 40 µM. With `COc1ccc2nc(SCC(=O)Nc3cc(Cl)ccc3OC)c(C#N)cc2c1` [5b], the IC50 was 10 µM.

With `COc1ccc(OC)c(NC(=O)CSc2nc3ccc(OC)cc3cc2C#N)c1` [5c], the IC50 came to 10 µM.

Take `COc1ccc2nc(SCC(=O)Nc3ccccc3Br)c(C#N)cc2c1` [5d]: the 50% inhibitory concentration (IC50) was 10 µM.

In the case of `COc1ccc2nc(SCC(=O)Nc3ccccc3Cl)c(C#N)cc2c1` [5e], the IC50 worked out at 10 µM. With `COc1ccc2nc(SCC(=O)Nc3ccccn3)c(C#N)cc2c1` [5f], the IC50 was found to be 10 µM. In the case of `COc1ccc2nc(SCC(=O)Nc3ccc(Cl)cn3)c(C#N)cc2c1` [5g], the IC50 is 10 µM. In the case of `COc1ccc2nc(SCC(=O)Nc3cnccn3)c(C#N)cc2c1` [5h] it was 10 µM. As to `COc1ccc2nc(SCC(=O)Nc3cc(C(F)(F)F)ccc3C(F)(F)F)c(C#N)cc2c1` [5i], the IC50 stood at 20 µM. In the case of `COc1ccc2nc(SCC(=O)Nc3nccs3)c(C#N)cc2c1` [5j] it was 10 µM; in that of `COc1ccc2nc(SCC(=O)Nc3ccccc3O)c(C#N)cc2c1` [5k], 30 µM.

Turning to `COc1ccc2nc(SCC(=O)Nc3ccc(Cl)cc3Cl)c(C#N)cc2c1` [5l], the IC50 is 10 µM. For `CCc1cccc(CC)c1NC(=O)CSc1nc2ccc(OC)cc2cc1C#N` [5m], the IC50 was 20 µM. Consider `COc1ccc2nc(SCC(=O)Nc3ccc(N(C)C)cc3)c(C#N)cc2c1` [5n], for which the IC50 was 10 µM. In the case of `COc1ccc(C)cc1NC(=O)CSc1nc2ccc(Cl)cc2cc1C#N` [5o] it was 20 µM. In the case of `N#Cc1cc2cc(Cl)ccc2nc1SCC(=O)Nc1ccccc1C(F)(F)F` [5p], the IC50 was found to be 10 µM. Take `COc1ccc(C)cc1NC(=O)CSc1nc2ccc(C)cc2cc1C#N` [5q]: the IC50 came out at 20 µM.

`Cc1ccc2nc(SCC(=O)Nc3ccccc3C(F)(F)F)c(C#N)cc2c1` [5r]: the IC50 came out at 40 µM. Consider `COc1ccc(C)cc1NC(=O)CSc1nc2ccc(Br)cc2cc1C#N` [5s], for which the IC50 stood at 40 µM.

For the molecule `N#Cc1cc2cc(Br)ccc2nc1SCC(=O)Nc1ccccc1C(F)(F)F` [5t], the IC50 came to 50 µM. In the case of `COc1ccc2nc(SCC(=O)Nc3cc(C)ccc3OC)c(C#N)cc2c1` [I2] it was 1 µM.

The values above are taken from PMC3637257, “A Novel Anti-Tumor Inhibitor Identified by Virtual Screen with PLK1 Structure and Zebrafish Assay” (PLoS ONE, 2013).
